# Data as given in article PMC9381536, “Non-apoptotic cell death induction via sapogenin based supramolecular particles” (Scientific Reports, 2022).
# How the values were obtained:
# HCC1937 = assay: LDH (lactate dehydrogenase) releasing assay; type: cell-based, Human; conditions: LDH release and immunoblotting
# Procedure: Figure 5 The cytotoxic activity of analogs depends on particle formation like AG-08. […] The level of released LDH was calculated as fold change relative to vehicle. […] After 24 h, cell viability was measured. […] Cell viability after 24 h was measured. The reported values correspond to mean values ± standard deviation (± s.d) of three experiments. ***p < 0.001, ****p < 0.0001.
# LDH-Cytotoxicity Colorimetric Assay Kit II (Biovision) was used to detect LDH releasing. Briefly, HCC1937 were seeded on 96 well plate. After treatment with compounds, cells were centrifuged at 600×g for 10 min. 10 µl supernatant were transferred into clean 96 well plate and added into 100 µl LDH Reaction Mix. Following 30 min incubation at room temperature, 10 µl stop solution were added, and absorbance was measured at 450 nm (Varioscan, Thermo Fisher Scientific, US).
# [1] = Cytotoxic activity after freeze–thaw cycle; type: cell-based; conditions: solution, no change in chemical structure
# [2] = tested on: differentially expressed genes; assay: Microarray gene expression analysis (human Clariom D); type: cell-based
# Procedure: To investigate the overall cellular response to AG-08 treatment, microarray gene expression analysis of cells treated with vehicle and AG-08 treated groups was performed. […] Next, protein–protein interaction (PPI) network analysis was evaluated by the STRING (Search Tool for the Retrieval of Interacting Genes/Proteins) network. There were 61 nodes and 145 edges in the network (PPI enrichment p-value < 1 × 10^–16). […] Then, enrichment was performed using GO and KEGG pathway analyses.
# Microarray analyses were conducted using the human Clariom D Affymetrix platform following the manufacturer’s instructions (902915, Thermo Fisher Scientific). Briefly, the total RNA was isolated using Total RNA Isolation Kit (Bio-Rad, US). Isolated total RNA was amplified, labeled, and hybridized on Clariom D Affymetrix platform. The arrays were stained by using GeneChip Fluidics Station 450. The cartridge was scanned with the GeneChip Scanner 3000 7G System (Affymetrix CA, USA).
# [3] = fold change ≥ 3.0, p-value ≤ 0.05
smiles,measurement,setting,value
Cc1ccc(S(=O)(=O)OC2CCC3(C)C4=CCC5(C)C(C6(C)CCC(C(C)(C)O)O6)C(O)CC5(C)C4C=CC3C2(C)C)cc1 (centres unmarked) [AG-08],mode of cell death,HCC1937,induced necrotic cell death
same,cytotoxic activity after one freeze–thaw cycle,[1],lost
same,Gene expression level (Log2),"[2]; AC006548.19, control 6.1",4.15 Log2
same,Gene expression level (Log2),"[2]; AC068797.1, control 6.72",4.17 Log2
same,Gene expression level (Log2),"[2]; AC079949.1, control 5.75",7.8 Log2
same,Gene expression level (Log2),"[2]; ACSM3, control 6.76",4.97 Log2
same,Gene expression level (Log2),"[2]; AKAP12, control 6.27",9.04 Log2
same,Gene expression level (Log2),"[2]; AL161626.1, control 2.85",4.86 Log2
same,Gene expression level (Log2),"[2]; ATF3, control 5.19",7.04 Log2
same,Gene expression level (Log2),"[2]; CCL20, control 12.58",15.79 Log2
same,Gene expression level (Log2),"[2]; CHAC1, control 7.22",9.98 Log2
same,Gene expression level (Log2),"[2]; CREB5, control 8.35",11.14 Log2
same,Gene expression level (Log2),"[2]; CSF3, control 3.29",5.21 Log2
same,Gene expression level (Log2),"[2]; CSRNP1, control 5.26",7.09 Log2
same,Gene expression level (Log2),"[2]; CXCL2, control 8.19",10.58 Log2
same,Gene expression level (Log2),"[2]; CXCL3, control 6.99",9.67 Log2
same,Gene expression level (Log2),"[2]; CXCL8, control 9.63",12.86 Log2
same,Gene expression level (Log2),"[2]; DAW1, control 4.73",7.07 Log2
same,Gene expression level (Log2),"[2]; DDIT3, control 5.64",8.56 Log2
same,Gene expression level (Log2),"[2]; DNAJB9, control 8.13",10.33 Log2
same,Gene expression level (Log2),"[2]; DUSP1, control 10.95",12.84 Log2
same,Gene expression level (Log2),"[2]; ERO1B, control 6.9",8.83 Log2
same,Gene expression level (Log2),"[2]; ETS1, control 11.21",13.17 Log2
same,Gene expression level (Log2),"[2]; FGF5, control 4.09",6.46 Log2
same,Gene expression level (Log2),"[2]; FRMD6, control 7.12",9.43 Log2
same,Gene expression level (Log2),"[2]; GADD45A, control 11.09",13.43 Log2
same,Gene expression level (Log2),"[2]; GEM, control 4.45",6.45 Log2
same,Gene expression level (Log2),"[2]; HERPUD1, control 13.87",15.89 Log2
same,Gene expression level (Log2),"[2]; HSP90B1, control 8.38",10.67 Log2
same,Gene expression level (Log2),"[2]; HSPA1A, control 13.53",15.75 Log2
same,Gene expression level (Log2),"[2]; HSPA7, control 4.94",7.45 Log2
same,Gene expression level (Log2),"[2]; IL1A, control 10.2",12.9 Log2
same,Gene expression level (Log2),"[2]; IL1RL1, control 6.82",10.06 Log2
same,Gene expression level (Log2),"[2]; IL6, control 9.32",11.97 Log2
same,Gene expression level (Log2),"[2]; JUN, control 10.47",12.32 Log2
same,Gene expression level (Log2),"[2]; KRT5, control 11.75",9.49 Log2
same,Gene expression level (Log2),"[2]; LRRC49, control 6.77",8.59 Log2
same,Gene expression level (Log2),"[2]; MAP1B, control 7.26",9.32 Log2
same,Gene expression level (Log2),"[2]; MIR1284, control 5.93",3.95 Log2
same,Gene expression level (Log2),"[2]; MIR6515, control 4.75",6.96 Log2
same,Gene expression level (Log2),"[2]; NR4A1, control 6.63",8.84 Log2
same,Gene expression level (Log2),"[2]; PTGS2, control 9.7",11.9 Log2
same,Gene expression level (Log2),"[2]; RCAN1, control 11.4",13.43 Log2
same,Gene expression level (Log2),"[2]; RN7SKP36, control 4.9",6.69 Log2
same,Gene expression level (Log2),"[2]; RNA18S5, control 10",12.08 Log2
same,Gene expression level (Log2),"[2]; RNU11-6P, control 5.74",3.79 Log2
same,Gene expression level (Log2),"[2]; RP5-1180E21.5, control 9.91",7.94 Log2
same,Gene expression level (Log2),"[2]; RP11-74J13.9, control 5.92",3.93 Log2
same,Gene expression level (Log2),"[2]; RP11-253I19.3, control 5.74",3.7 Log2
same,Gene expression level (Log2),"[2]; RP11-632K20.8, control 8.77",6.86 Log2
same,Gene expression level (Log2),"[2]; SERPINE1, control 7.07",9.03 Log2
same,Gene expression level (Log2),"[2]; SIRPG-AS1, control 6.81",4.97 Log2
same,Gene expression level (Log2),"[2]; SPRR2A, control 6.12",8.31 Log2
same,Gene expression level (Log2),"[2]; SPRY4, control 4.5",6.6 Log2
same,Gene expression level (Log2),"[2]; TNFAIP3, control 12.92",15.77 Log2
same,Gene expression level (Log2),"[2]; TNFAIP6, control 7.73",10.32 Log2
same,Gene expression level (Log2),"[2]; TNFRSF9, control 6.22",8.07 Log2
same,Fold changes,[2]; UPR gene ATF3,3.61
same,Fold changes,[2]; UPR gene CXCL8,9.38
same,Fold changes,[2]; UPR gene DAW1,5.06
same,Fold changes,[2]; UPR gene DDIT3 (CHOP),7.57
same,Fold changes,[2]; UPR gene DNAJB9,4.59
same,Fold changes,[2]; UPR gene HERPUD1,4.06
same,Fold changes,[2]; UPR gene HSP90B1,4.89
same,Fold changes,[2]; UPR gene HYOU1,3.14
same,Gene expression level (Log2),"[2]; Y_RNA, control 2.96",4.88 Log2
same,Gene expression level (Log2),"[2]; beyly, control 5.86",3.88 Log2
same,Gene expression level (Log2),"[2]; bonawbu, control 6.42",4.47 Log2
same,Gene expression level (Log2),"[2]; borflaw, control 4.1",6.24 Log2
same,Gene expression level (Log2),"[2]; cheeju, control 7.11",4.53 Log2
same,Gene expression level (Log2),"[2]; chergy, control 8.48",6.6 Log2
same,Gene expression level (Log2),"[2]; chostarby, control 9.01",6.86 Log2
same,Gene expression level (Log2),"[2]; choygey, control 9.26",11.85 Log2
same,Gene expression level (Log2),"[2]; dymabu, control 7.28",4.94 Log2
same,Gene expression level (Log2),"[2]; ferchor, control 6.47",4.51 Log2
same,Gene expression level (Log2),"[2]; floynabo, control 3.01",5.07 Log2
same,Gene expression level (Log2),"[2]; flyleyby, control 5.79",3.87 Log2
same,Gene expression level (Log2),"[2]; flyspabu, control 6.68",4.45 Log2
same,number of genes downregulated,[2]; [3],115
same,number of genes significantly affected,[2]; [3],193
same,number of genes upregulated,[2]; [3],78
same,Gene expression level (Log2),"[2]; glupuby, control 8.3",6.47 Log2
same,Gene expression level (Log2),"[2]; guzobu, control 4.94",3.12 Log2
same,Gene expression level (Log2),"[2]; hunimo, control 2.97",4.9 Log2
same,Gene expression level (Log2),"[2]; jawrubu, control 6.99",4.94 Log2
same,Gene expression level (Log2),"[2]; keyfybu, control 6.35",4.42 Log2
same,Gene expression level (Log2),"[2]; klobly, control 8.49",6.7 Log2
same,Gene expression level (Log2),"[2]; kluky, control 6.37",4.18 Log2
same,Gene expression level (Log2),"[2]; leeklerbu, control 4.21",2.34 Log2
same,Gene expression level (Log2),"[2]; mazybu, control 5.07",3.22 Log2
same,Gene expression level (Log2),"[2]; muneme, control 5.09",3.26 Log2
same,Gene expression level (Log2),"[2]; myklar, control 6.22",4.37 Log2
same,Gene expression level (Log2),"[2]; plergler, control 8.38",5.85 Log2
same,Gene expression level (Log2),"[2]; rersharbu, control 8.82",6.82 Log2
same,Gene expression level (Log2),"[2]; runara, control 7",4.96 Log2
same,Gene expression level (Log2),"[2]; skaskoyby, control 8.54",6.69 Log2
same,Gene expression level (Log2),"[2]; skeymeybo, control 4.08",5.88 Log2
same,Gene expression level (Log2),"[2]; skoytoyby, control 3.86",5.73 Log2
same,Gene expression level (Log2),"[2]; slorfley, control 5.24",3.4 Log2
same,Gene expression level (Log2),"[2]; slukeebu, control 7.87",5.7 Log2
same,Gene expression level (Log2),"[2]; snawperbu, control 10.99",8.51 Log2
same,Gene expression level (Log2),"[2]; sneykleebu, control 7.89",5.94 Log2
same,Gene expression level (Log2),"[2]; spaforby, control 10.31",8.45 Log2
same,Gene expression level (Log2),"[2]; sparsloy, control 9.51",7.2 Log2
same,Gene expression level (Log2),"[2]; spernawbo, control 7.18",5.32 Log2
same,Gene expression level (Log2),"[2]; sportobo, control 11.14",9.07 Log2
same,Gene expression level (Log2),"[2]; steybleebu, control 9.69",7.5 Log2
same,Gene expression level (Log2),"[2]; swawchu, control 12.82",10.51 Log2
same,Gene expression level (Log2),"[2]; sworkaby, control 2.37",4.69 Log2
same,Gene expression level (Log2),"[2]; swyjee, control 7.88",6.02 Log2
same,Gene expression level (Log2),"[2]; teesnarby, control 5.92",4.07 Log2
same,Gene expression level (Log2),"[2]; vybu, control 2.47",4.27 Log2
same,Gene expression level (Log2),"[2]; vyglabu, control 2.86",4.99 Log2
